{"source": "patent US5055485A", "about": "“Inactivation of viruses in cell- and protein-containing compositions using aryl diol epoxides” (New York Blood Center, Inc., priority 1988, dated 1991)", "key": {"[1]": {"test_system": "proteinaceous components of the plasma", "conditions": "background art; cited from earlier work"}, "[2]": {"conditions": "background art; cited from earlier work"}, "[3]": {"test_system": "DNA", "conditions": "background art; cited from earlier work"}, "[4]": {"test_system": "Vesicular stomatitis virus (VSV)", "type": "cell-based"}, "[5]": {"test_system": "VSV", "type": "cell-based, vesicular stomatitis virus"}, "[6]": {"test_system": "VSV", "test": "microbe, parasite or virus in culture", "type": "cell-based", "conditions": "Vesicular stomatitis virus, A549, read-out: virus kill (cell-associated VSV)"}, "[7]": {"test_system": "VSV", "test": "microbe, parasite or virus in culture", "type": "cell-based, vesicular stomatitis virus", "conditions": "for log reduction at 10 µM: Vesicular stomatitis virus, 6 h"}, "[8]": {"test_system": "Anti-HBsAg", "test": "Plasma protein functional activity: Anti-HBsAg titer", "type": "biochemical", "conditions": "human plasma, 10 μm, 6 hours, 24° C."}, "[9]": {"test_system": "Fibrinogen", "test": "Plasma protein functional activity: fibrinogen clottability", "type": "biochemical", "conditions": "human plasma, 10 μm, 6 hours, 24° C."}, "[10]": {"test_system": "AHF", "test": "Plasma protein functional activity: AHF", "type": "biochemical", "conditions": "human plasma, 10 μm, 6 hours, 24° C."}, "[11]": {"test_system": "Factor IX", "test": "Plasma protein functional activity: Factor IX", "type": "biochemical", "conditions": "human plasma, 10 μm, 6 hours, 24° C."}, "[12]": {"test_system": "Haptoglobin", "test": "Plasma protein: haptoglobin", "type": "biochemical", "conditions": "human plasma, 10 μm, 6 hours, 24° C."}, "[13]": {"test_system": "selected plasma proteins", "test": "Functional activity of selected plasma proteins, overall", "type": "biochemical", "conditions": "human plasma, 10 μm, 6 hours, 24° C."}, "[14]": {"test": "Solubility in aqueous media / water", "type": "physicochemical"}, "[15]": {"test": "Hydrolysis in aqueous medium", "type": "physicochemical", "conditions": "iscove's medium 10% fbs; Iscove's medium containing 10% fetal bovine serum"}, "[16]": {"test_system": "A549 cells"}, "[17]": {"test_system": "washed human red blood cells", "test": "Red cell structural and functional integrity", "conditions": "conditions of Example 2"}, "[18]": {"test_system": "factor VIII", "conditions": "background art; cited from earlier work"}, "[19]": {"test_system": "viruses", "conditions": "background art; cited from earlier work"}}, "note": "Like-named read-outs stand apart in the source and are kept apart here."}
{"smiles": "OCl", "note": "[sodium hypochlorite]", "values": [{"measurement": "denaturation of plasma proteins", "setting": "[1]", "result": "denatured the valuable proteinaceous components of the plasma"}]}
{"smiles": "CN(C)c1ccc2cc3ccc(N(C)C)cc3nc2c1", "note": "[acridine orange]", "values": [{"measurement": "water solubility (in words)", "setting": "[2]", "result": "water soluble"}, {"measurement": "binding to DNA", "setting": "[3]", "result": "bind extremely well to DNA"}]}
{"smiles": "Nc1ccc2cc3ccc(N)cc3nc2c1", "note": "[proflavin]", "values": [{"measurement": "water solubility (in words)", "setting": "[2]", "result": "water soluble"}, {"measurement": "binding to DNA", "setting": "[3]", "result": "bind extremely well to DNA"}]}
{"smiles": "O[C@H]1[C@H]2O[C@H]2c2c(cc3ccc4cccc5ccc2c3c45)[C@@H]1O", "note": "(relative stereo) [BAPDE, trans-7,8-dihydroxy [anti] 9,10 epoxy-7,8,9,10-tetrahydro benzo[a]pyrene]", "values": [{"measurement": "virus inactivated", "setting": "[4]", "result": "> 5", "unit": "logs"}, {"measurement": "VSV inactivation in the presence of red cells (in words)", "setting": "[5]", "result": "reduced in the presence of red cells"}, {"measurement": "virus titer reduction", "setting": "[5]", "result": "at least 3 logs"}, {"measurement": "log reduction at 3 µM", "setting": "[6]", "result": "> 5.5"}, {"measurement": "VSV Infectivity following treatment with BAPDE", "setting": "[7]", "result": "< -0.5"}, {"measurement": "log reduction at 10 µM", "setting": "[7]; read-out: virus inactivation", "result": "> 4.5"}, {"measurement": "log reduction at 10 µM", "setting": "[7]; read-out: VSV Infectivity change: log10 Kill", "result": "> 4.6"}, {"measurement": "Anti-HBsAg Recovery (%)", "setting": "[8]", "result": 110, "unit": "%"}, {"measurement": "Anti-HBsAg following treatment with BAPDE", "setting": "[8]; no treatment 0.50", "result": 0.55, "unit": "titer"}, {"measurement": "Fibrinogen clottability Recovery (%)", "setting": "[9]", "result": 100, "unit": "%"}, {"measurement": "Fibrinogen clottability following treatment with BAPDE", "setting": "[9]; no treatment clottable", "result": "clottable"}, {"measurement": "AHF Recovery (%)", "setting": "[10]", "result": 79, "unit": "%"}, {"measurement": "AHF following treatment with BAPDE", "setting": "[10]; no treatment 0.70", "result": 0.55, "unit": "units/ml"}, {"measurement": "Factor IX Recovery (%)", "setting": "[11]", "result": 100, "unit": "%"}, {"measurement": "Factor IX following treatment with BAPDE", "setting": "[11]; no treatment 0.9", "result": 0.9, "unit": "units/ml"}, {"measurement": "Haptoglobin Recovery (%)", "setting": "[12]", "result": 97, "unit": "%"}, {"measurement": "Haptoglobin following treatment with BAPDE", "setting": "[12]; no treatment 175", "result": 170, "unit": "mg/dL"}, {"measurement": "loss of protein functional activity (in words)", "setting": "[13]", "result": "without significant loss of protein functional activity"}, {"measurement": "solubility", "setting": "[14]", "result": "1 to 10", "unit": "µM"}, {"measurement": "half-life", "setting": "[15]", "result": "~30", "unit": "min"}, {"measurement": "toxicity to A549 cells", "setting": "[16]", "result": "Neither BAPDE nor the solvent in which it was dissolved (e.g., tetrahydroturan) were toxic to A549 cells"}, {"measurement": "2,3 diphosphoglycerate levels", "setting": "[17]", "result": "within the normal range"}, {"measurement": "ATP levels", "setting": "[17]", "result": "within the normal range"}, {"measurement": "Red cell structural and functional integrity", "setting": "[17]", "result": "not compromised"}, {"measurement": "hemoglobin content", "setting": "[17]", "result": "within the normal range"}, {"measurement": "osmotic fragility", "setting": "[17]", "result": "within the normal range"}]}
{"smiles": "C=O", "note": "[formaldehyde]", "values": [{"measurement": "denaturation of plasma proteins", "setting": "[1]", "result": "denatured the valuable proteinaceous components of the plasma"}]}
{"smiles": "O=C1CCO1", "note": "[Beta-propiolactone, beta-propiolactone]", "values": [{"measurement": "loss of factor VIII content of plasma", "setting": "[18]", "result": "more than half of the factor VIII content of plasma is lost"}, {"measurement": "denaturation of plasma proteins", "setting": "[1]", "result": "substantially denaturate valuable plasma proteins"}]}
{"smiles": "O=CCCCC=O", "note": "[glutaraldehyde]", "values": [{"measurement": "denaturation of plasma proteins", "setting": "[1]", "result": "denatured the valuable proteinaceous components of the plasma"}, {"measurement": "viral inactivation and effect on cells (in words)", "setting": "[19]", "result": "inactivates viral infectivity, but fixes cells"}]}
